Measurements as given in PMC9481570, “A small molecule antagonist of SMN disrupts the interaction between SMN and RNAP II” (Nature Communications, 2022).

Legend:
[1] = test system: R-loops in HEK293 cells; test: Global nuclear R-loop immunofluorescence (S9.6 antibody); type: cell-based, human; details: 20 μM, 72 h, S9.6 immunofluorescence
Experimental: Global nuclear R-loop detection was ascertained via immunofluorescence using the S9.6 antibody (Kerafast, ENH001)[58]. At 24 h prior to immunofluorescence, 40,000 cells were seeded on to Poly-L-Lysine (PLL) coated coverslips. Cells were fixed using 1% formaldehyde for 15 min, washed three times with PBS, permeabilized with 0.3% Triton X-100 and washed again three times with PBS. Coverslips were blocked using 5% BSA for 1 h at room temperature and transferred to humidified chambers for antibody incubations. Coverslips were incubated with 60 μL of monoclonal S9.6 antibody (Kerafast, ENH001, 1:500) for 1 h at room temperature. After washing with PBS, cells were incubated with a secondary goat anti-mouse Alexa Fluor 488 antibody (Thermo Fisher, A11001, 1:1000) for 1 h in a dark chamber. Following further washing and DAPI staining, coverslips were mounted onto microscope slides using DAKO fluorescent mounting medium (Agilent, S302380-2) and then sealed with nail polish. […] The coverslips were processed for immunofluorescence 24 h later using the primary antibodies monoclonal S9.6 (Kerafast, ENH001, 1:500), or polyclonal anti-RNase H1 (Proteintech, 15606-1-AP, 1:500) and the secondary antibodies goat anti-mouse Alexa Fluor 488 (Thermo Fisher, A11001, 1:1000) or goat anti-rabbit Alexa Fluor 568 (Thermo Fisher, A11011, 1:1000) to quantify R-loop and confirm RNase H1 overexpression, respectively. […]

[2] = molecular target: T1, LBR (Homo sapiens, UniProt Q14739); test: ITC binding to LBR; details: Fig. 1c
T1 construct: LBR (aa 1–67); His (N, cleaved yes); made in house; host or cells: E. coli BL21 (DE3) Codon plus RIL
Source text: (§1) The coding DNA fragments of following Tudor domains were cloned into pET28-MHL vector: SMN (aa 82–147), UHRF1 (aa 126–285), SMNDC1 (aa 53–130), TDRD3 (aa 554–611), SND1 (aa 650–910), TDRD2 (aa 327–420), FXR1 (aa 2–132), PHF1 (aa 28–87), SGF29 (aa 115–293), JMJD2A (aa 897–1101), 53BP1 (aa 1483–1606), SETDB1 (aa 190–410), LBR (aa 1–67), ZGPAT (aa 120–271). The coding regions of chromodomain of CBX7 (aa 8–62), PWWP domain of DNMT3A (aa 275–417), WD40 repeats of WDR5 (aa 24–334) and CW domain of ZCWPW2 (aa 21–78) were also subcloned into pET28-MHL vector to generate N-terminally His-tagged fusion protein. The MBT repeats of L3MBTL1 (aa 200–522) and L3MBTL2 (aa 170–625) were subcloned into pET28GST-LIC vector to generate N-terminally GST-His-tagged fusion protein. All the plasmids were generated by ligase independent cloning (Vazyme Biotech, C112 or ABclonal Technology, RK21020). […] The molecular weight of all protein samples was measured by mass spectrometry.
(§2) For the ITC measurement, the concentrated proteins were diluted into 20 mM Tris-HCl, pH 7.5, 150 mM NaCl (ITC buffer); the lyophilized compounds were dissolved in the same buffer, and the pH value was adjusted by adding 2 M NaOH or 2 M HCl. […] Compound concentrations were calculated from the mass and the volume of the solvent. […]

[3] = molecular target: T2, SMN_Y109A (Homo sapiens, UniProt Q16637, Y109A); test: ITC binding to SMN Tudor mutant Y109A; details: Fig. 3d
T2 construct: SMN (aa 82–147); His (N, cleaved yes); made in house; host or cells: E. coli BL21 (DE3) Codon plus RIL
Source text: as §1, §2

[4] = molecular target: T3, TDRD3_Y566W (Homo sapiens, UniProt Q9H7E2, Y566W); test: ITC binding to TDRD3 mutant Y566W; details: Supplementary Fig. 11b, iTC-200; read-out: Kd, ITC binding curve, TDRD3_Y566W
T3 construct: TDRD3 (aa 554–611); His (N, cleaved yes); made in house; host or cells: E. coli BL21 (DE3) Codon plus RIL
Source text: as §1, §2

T2 sequence (Q16637 82-147 Y109A): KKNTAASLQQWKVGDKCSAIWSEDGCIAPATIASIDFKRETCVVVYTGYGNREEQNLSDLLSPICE
T3 sequence (Q9H7E2 554-611 Y566W): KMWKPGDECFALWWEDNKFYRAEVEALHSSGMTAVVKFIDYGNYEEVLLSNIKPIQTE
T1 sequence (Q14739 1-67): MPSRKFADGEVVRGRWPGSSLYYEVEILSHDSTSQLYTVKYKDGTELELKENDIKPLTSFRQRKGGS

SMILES | global nuclear R-loop levels in comparison to the DMSO controls [1] | Kd [2] [µM] | Kd [3] [µM] | Kd [4] [µM]
CCCn1c2c(c(=N)c3c1CCC3)CCC2 [Compound 2, 4-propyl-2,3,4,5,6,7-hexahydrodicyclopenta[b,e]pyridin-8(1H)-imine] | significantly increased | – | – | –
Cn1c2c(c(=N)c3c1CCC3)CCC2 [Compound 1, 4-methyl-2,3,4,5,6,7-hexahydrodicyclopenta[b,e]pyridin-8(1H)-imine] | significantly increased | > 244 | 15 ± 1 | 3.8 ± 0.4
